Patent publication US9409905B2, “Antibacterial compounds and methods for use” (PTC THERAPEUTICS, INC., priority 2011, dated 2016)
Converted amounts (≈) assume the structure as drawn.

Experiments:
[1] = test system: Pseudomonas aeruginosa (P. aeruginosa) 27853; test: Antibacterial activity, MIC (Table 5); format: cell-based; conditions: P. aeruginosa 27853, read-out: MIC, 27853
How it was run: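 Activity was measured by microbroth dilution. The MIC, in μg/mL, is the lowest drug concentration that prevents macroscopically visible growth under the test conditions.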

[2] = test system: Escherichia coli (E. coli) BAS849; test: Antibacterial activity, microbroth dilution MIC (Table 1); format: cell-based; conditions: microbroth dilution, super sensitive Gram-negative E. coli BAS849, read-out: MIC, BAS849
How it was run: (§1)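 Each strain is exposed to test compound in a microbroth dilution series; visible growth is scored macroscopically, and the lowest growth-free concentration is recorded as MIC in μg/mL.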

[3] = test system: Staphylococcus aureus (S. aureus) 29213; test: as above; format: cell-based; conditions: microbroth dilution, Gram-positive S. aureus 29213, read-out: MIC, 29213
How it was run: as §1

[4] = test system: Acinetobacter baumannii (A. baumannii) BAA747; test: Antibacterial activity, MIC (Table 4); format: cell-based; conditions: A. baumannii BAA747, read-out: MIC, BAA747
How it was run: (§2)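 Activity was measured by microbroth dilution. The MIC, in μg/mL, is the lowest drug concentration that prevents macroscopically visible growth under the test conditions. The resistant strains are multi-drug resistant clinical isolates.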

[5] = test system: Klebsiella pneumoniae (K. pneumoniae) 35657; test: Antibacterial activity, MIC (Table 4); format: cell-based; conditions: K. pneumoniae 35657, read-out: MIC, 35657
How it was run: as §2

A. baumannii MXX2240 = test: Antibacterial activity, MIC, resistant strain (Table 4); format: cell-based; conditions: Acinetobacter baumannii, MXX2240; resistant A. baumannii MMX2240, multi-drug resistant clinical isolate; read-out: MIC, MMX2240
How it was run: as §2

K. pneumoniae MXX1232 = test: as above; format: cell-based; conditions: Klebsiella pneumoniae, MXX1232; resistant K. pneumoniae MMX1232, multi-drug resistant clinical isolate; read-out: MIC, MMX1232
How it was run: as §2

E. coli ELZ4000 = test: Antibacterial activity, MIC, multi-drug resistant clinical isolate (Table 3); format: cell-based; conditions: Escherichia coli, ELZ4000, read-out: MIC ELZ4000
Source text: (§3) The antibacterial activity from a microbroth dilution method may be presented as the minimum inhibitory concentration (MIC in μg/mL). The MIC value is the lowest concentration of drug which prevents macroscopically visible growth under test conditions.
(§4) Antibacterial activity of test compounds against E. coli ELZ4000 and E. coli ELZ4251 multi-drug resistant clinical isolates is shown in Table 3.

E. coli ELZ4251 = test: as above; format: cell-based; conditions: Escherichia coli
Source text: as §3, §4

E. coli LZ3111 = test: Antibacterial activity, MIC, quinolone resistant strain (Table 2); format: cell-based; conditions: Escherichia coli, LZ3111, read-out: MIC LZ3111
How it was run: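 Microbroth dilution method; MIC (μg/mL) is the lowest drug concentration preventing macroscopically visible growth under test conditions.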

E. coli 25922 = test: Antibacterial activity, microbroth dilution MIC (Table 1); format: cell-based, Escherichia coli; conditions: Escherichia coli; microbroth dilution; control Gram-negative E. coli 25922 strain; read-out: MIC, 25922
How it was run: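 Values are MICs (μg/mL): the smallest drug amount at which macroscopically visible bacterial growth is absent under assay conditions, from a microdilution method in broth.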

Structure (SMILES)	MIC [1] [µg/mL]	MIC [2] [µg/mL]	MIC [3] [µg/mL]	MIC [4] [µg/mL]	MIC [5] [µg/mL]	MIC (A. baumannii MXX2240) [µg/mL]	MIC (K. pneumoniae MXX1232) [µg/mL]	MIC (E. coli ELZ4000) [µg/mL]	MIC (E. coli ELZ4251) [µg/mL]	MIC (E. coli LZ3111) [µg/mL]	MIC (E. coli 25922) [µg/mL]
CCc1cc(C(=O)O)c(=O)[nH]c1-c1ccc2c(c1)cc(CCN(C)C)n2C [Cpd 161, 6-(2-(2-(dimethylamino)ethyl)-1-methyl-1H-indol-5-yl)-5-ethyl-2-oxo-1,2-dihydropyridine-3-carboxylic acid]	3.5 to 12.5 (≈ 9.53 to 34 µM)	< 1	12.5 to 150 (≈ 34 to 408 µM)	3.5 to 12.5 (≈ 9.53 to 34 µM)	< 1	12.5 to 150 (≈ 34 to 408 µM)	12.5 to 150 (≈ 34 to 408 µM)	12.5 to 150 (≈ 34 to 408 µM)	12.5 to 150 (≈ 34 to 408 µM)	12.5 to 150 (≈ 34 to 408 µM)	< 1
CCc1cc(C(=O)O)c(=O)[nH]c1-c1ccc2c(c1)cc(CCN1CCCC1)n2C [Cpd 159, 5-ethyl-6-(1-methyl-2-(2-(pyrrolidin-1-yl)ethyl)-1H-indol-5-yl)-2-oxo-1,2-dihydropyridine-3-carboxylic acid]	3.5 to 12.5 (≈ 8.89 to 31.8 µM)	< 1	12.5 to 150 (≈ 31.8 to 381 µM)	3.5 to 12.5 (≈ 8.89 to 31.8 µM)	< 1	12.5 to 150 (≈ 31.8 to 381 µM)	12.5 to 150 (≈ 31.8 to 381 µM)	12.5 to 150 (≈ 31.8 to 381 µM)	12.5 to 150 (≈ 31.8 to 381 µM)	12.5 to 150 (≈ 31.8 to 381 µM)	< 1
CCc1c(-c2ccc3c(c2)cc(CN2CC(F)C2)n3C)[nH]c(=O)c(C(=O)O)c1O [Cpd 194, 5-ethyl-6-(2-((3-fluoroazetidin-1-yl)methyl)-1-methyl-1H-indol-5-yl)-4-hydroxy-2-oxo-1,2-dihydropyridine-3-carboxylic acid]	12.5 to 150 (≈ 31.3 to 376 µM)	< 1	3.5 to 12.5 (≈ 8.76 to 31.3 µM)	1 to 3.5 (≈ 2.5 to 8.76 µM)		3.5 to 12.5 (≈ 8.76 to 31.3 µM)	12.5 to 150 (≈ 31.3 to 376 µM)	12.5 to 150 (≈ 31.3 to 376 µM)	12.5 to 150 (≈ 31.3 to 376 µM)	3.5 to 12.5 (≈ 8.76 to 31.3 µM)	1 to 3.5 (≈ 2.5 to 8.76 µM)
CCc1c(-c2ccc3c(c2)cc(CN2CC[C@@H](F)C2)n3C)[nH]c(=O)c(C(=O)O)c1O [Cpd 177, (R)-5-ethyl-6-(2-((3-fluoropyrrolidin-1-yl)methyl)-1-methyl-1H-indol-5-yl)-4-hydroxy-2-oxo-1,2-dihydropyridine-3-carboxylic acid]	12.5 to 150 (≈ 30.2 to 363 µM)	< 1	3.5 to 12.5 (≈ 8.47 to 30.2 µM)		1 to 3.5 (≈ 2.42 to 8.47 µM)		12.5 to 150 (≈ 30.2 to 363 µM)	12.5 to 150 (≈ 30.2 to 363 µM)	3.5 to 12.5 (≈ 8.47 to 30.2 µM)	3.5 to 12.5 (≈ 8.47 to 30.2 µM)	1 to 3.5 (≈ 2.42 to 8.47 µM)
CCc1c(-c2ccc3c(c2)cc(CN2CCC(OC)C2)n3C)[nH]c(=O)c(C(=O)O)c1O (centres unmarked) [Cpd 179, 5-ethyl-4-hydroxy-6-(2-((3-methoxypyrrolidin-1-yl)methyl)-1-methyl-1H-indol-5-yl)-2-oxo-1,2-dihydropyridine-3-carboxylic acid]	12.5 to 150 (≈ 29.4 to 353 µM)	< 1	3.5 to 12.5 (≈ 8.23 to 29.4 µM)	1 to 3.5 (≈ 2.35 to 8.23 µM)		3.5 to 12.5 (≈ 8.23 to 29.4 µM)	12.5 to 150 (≈ 29.4 to 353 µM)	12.5 to 150 (≈ 29.4 to 353 µM)	3.5 to 12.5 (≈ 8.23 to 29.4 µM)	3.5 to 12.5 (≈ 8.23 to 29.4 µM)	1 to 3.5 (≈ 2.35 to 8.23 µM)
CCc1c(-c2ccc3c(c2)cc(CN2C[C@H]4C[C@@H](NC)C[C@H]4C2)n3C)[nH]c(=O)c(C(=O)O)c1O [Cpd 289, 5-ethyl-4-hydroxy-6-(1-methyl-2-(((3aR,5r,6aS)-5-(methylamino)hexahydrocyclopenta[c]pyrrol-2(1H)-yl)methyl)-1H-indol-5-yl)-2-oxo-1,2-dihydropyridine-3-carboxylic acid]	12.5 to 150 (≈ 26.9 to 323 µM)	1 to 3.5 (≈ 2.15 to 7.53 µM)	12.5 to 150 (≈ 26.9 to 323 µM)	12.5 to 150 (≈ 26.9 to 323 µM)				12.5 to 150 (≈ 26.9 to 323 µM)	12.5 to 150 (≈ 26.9 to 323 µM)	3.5 to 12.5 (≈ 7.53 to 26.9 µM)	12.5 to 150 (≈ 26.9 to 323 µM)
Cc1c(-c2ccc3c(c2)cc(CN2CCCC2)n3C)[nH]c(=O)c(C(=O)O)c1O [Cpd 313, 4-hydroxy-5-methyl-6-(1-methyl-2-(pyrrolidin-1-ylmethyl)-1H-indol-5-yl)-2-oxo-1,2-dihydropyridine-3-carboxylic acid]	12.5 to 150 (≈ 32.8 to 393 µM)	< 1	12.5 to 150 (≈ 32.8 to 393 µM)	3.5 to 12.5 (≈ 9.18 to 32.8 µM)		1 to 3.5 (≈ 2.62 to 9.18 µM)	12.5 to 150 (≈ 32.8 to 393 µM)	3.5 to 12.5 (≈ 9.18 to 32.8 µM)	1 to 3.5 (≈ 2.62 to 9.18 µM)	1 to 3.5 (≈ 2.62 to 9.18 µM)	3.5 to 12.5 (≈ 9.18 to 32.8 µM)
Cn1c(CN2CCC2)cc2cc(-c3cc(O)c(C(=O)O)c(=O)[nH]3)ccc21 [Cpd 328, 6-(2-(azetidin-1-ylmethyl)-1-methyl-1H-indol-5-yl)-4-hydroxy-2-oxo-1,2-dihydropyridine-3-carboxylic acid]	12.5 to 150 (≈ 35.4 to 424 µM)	3.5 to 12.5 (≈ 9.9 to 35.4 µM)	12.5 to 150 (≈ 35.4 to 424 µM)	12.5 to 150 (≈ 35.4 to 424 µM)				12.5 to 150 (≈ 35.4 to 424 µM)	12.5 to 150 (≈ 35.4 to 424 µM)	3.5 to 12.5 (≈ 9.9 to 35.4 µM)	12.5 to 150 (≈ 35.4 to 424 µM)
